This note sets out measurements from PMC8399023 (Molecules, 2021).

In brackets after ≈: the same amount, converted by molar mass.

For this data set the following is noted: 24 h, pH 7.4.

As for `CC(=O)N1CCC(NC(=O)NC23CC4CC(CC(C4)C2)C3)CC1` [AR9281], the Solubility – broadly, the dissolved amount per volume that the medium holds – is recorded as 277 µg/mL (≈ 867 µM).
